These results are taken from article PMC8092170 (Indian Journal of Pharmacology, 2021).

pIC50: −log10 of the molar value.

The assay has as its target T1, peroxisome proliferator-activated receptor gamma (PPARγ) (Homo sapiens, UniProt P37231).
T1 sequence (P37231 223-505 limits assumed): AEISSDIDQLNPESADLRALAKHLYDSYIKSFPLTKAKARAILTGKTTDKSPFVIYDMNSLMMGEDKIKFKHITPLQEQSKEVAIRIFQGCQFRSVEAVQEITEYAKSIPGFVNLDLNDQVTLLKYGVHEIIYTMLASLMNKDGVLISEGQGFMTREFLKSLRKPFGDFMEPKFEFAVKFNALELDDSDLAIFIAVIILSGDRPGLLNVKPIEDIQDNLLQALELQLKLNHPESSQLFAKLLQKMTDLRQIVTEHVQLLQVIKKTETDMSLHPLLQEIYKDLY
Description: fluorescence polarization probe displacement. The format is binding.

The pIC50 is the IC50 on a negative log10 scale, so that one unit is a factor of ten. In the case of `O=c1c(-c2ccc(O)cc2)coc2cc(O)cc(O)c12` [genistein], the pIC50 was 4.62.
